Some results are limits rather than exact numbers.

One assay deals with T1, RON (Homo sapiens, UniProt Q04912).
T1 sequence (Q04912 913-1400): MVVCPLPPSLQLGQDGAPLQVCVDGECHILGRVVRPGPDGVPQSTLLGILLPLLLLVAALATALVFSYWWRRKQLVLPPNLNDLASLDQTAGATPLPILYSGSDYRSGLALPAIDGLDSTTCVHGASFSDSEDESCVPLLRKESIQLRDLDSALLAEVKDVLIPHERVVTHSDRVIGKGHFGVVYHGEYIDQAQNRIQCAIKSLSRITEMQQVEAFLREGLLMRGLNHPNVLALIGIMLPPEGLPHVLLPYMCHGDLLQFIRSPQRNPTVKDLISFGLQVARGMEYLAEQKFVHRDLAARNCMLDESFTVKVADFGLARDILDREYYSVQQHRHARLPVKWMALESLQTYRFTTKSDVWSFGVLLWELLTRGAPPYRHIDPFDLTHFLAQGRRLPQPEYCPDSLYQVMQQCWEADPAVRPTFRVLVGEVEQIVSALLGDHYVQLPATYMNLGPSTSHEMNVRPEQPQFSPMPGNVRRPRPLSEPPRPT
The experiment in a line: sfRON cell mechanistic assay (HeLa), phosphorylated RON ELISA. As to conditions: HeLa cells transfected with sfRON; inhibition of phosphorylated RON; four hours incubation; at least duplicate experiments; read-out: sfRON mech IC50. The class given is cell-based. In outline:
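HeLa cells transiently transfected with sfRON plasmid, then exposed 4 h at 37 °C to a 6-point compound series (typically 10 μM to 3 nM, 0.5% DMSO). Phospho-RON (pY1238/1239) in lysates measured by sandwich ELISA with luminescence. IC50 from 4-parameter fit of percent-of-DMSO-control data, at least duplicate runs.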
In general terms: ELISA stands for enzyme-linked immunosorbent assay.

The subject of another assay is MKN45 cells. The experiment in a line: MKN45 cell proliferation assay (CellTiter-Glo). In kind it is cell-based. As to conditions: Homo sapiens, MKN-45, 72 h; MKN45 cell line; 3 days incubation; at least duplicate experiments; read-out: Prolif. IC50. In general terms: ATP-based viability assays read luminescence as a measure of living cells.

In the case of `COc1ccc(F)c(Cl)c1[C@@H](C)c1c[nH]c2ncc(-c3cnn(C)c3N)cc12` [Example 38, 4-{3-[(1S)-1-(2-Chloro-3-fluoro-6-methoxyphenyl)ethyl]-1H-pyrrolo[2,3-b]pyridin-5-yl}-1-methyl-1H-pyrazol-5-amine], the IC50 was 200 to 1000 nM at RON and no more than 50 nM in the assay with MKN45 cells.
For `COc1ccc(F)c(Cl)c1[C@@H](C)c1c[nH]c2ncc(-c3cn(C)nc3C(N)=O)cc12` [Example 39, 4-{3-[(1S)-1-(2-Chloro-3-fluoro-6-methoxyphenyl)ethyl]-1H-pyrrolo[2,3-b]pyridin-5-yl}-1-methyl-1H-pyrazole-3-carboxamide], in that order: greater than 1000 nM and 50 to 200 nM.
Regarding `COc1ccc(F)c(Cl)c1[C@@H](C)c1c[nH]c2ncc(-c3c(C)nn(C)c3C(N)=O)cc12` [Example 41, 4-{3-[(1S)-1-(2-Chloro-3-fluoro-6-methoxyphenyl)ethyl]-1H-pyrrolo[2,3-b]pyridin-5-yl}-1,3-dimethyl-1H-pyrazole-5-carboxamide], the IC50 at RON and in the assay with MKN45 cells was greater than 1000 nM throughout.
Turning to `COc1ccc(F)c(Cl)c1[C@@H](C)c1c[nH]c2ncc(-c3cn(C)nc3CO)cc12` [Example 42, (4-{3-[(1S)-1-(2-Chloro-3-fluoro-6-methoxyphenyl)ethyl]-1H-pyrrolo[2,3-b]pyridin-5-yl}-1-methyl-1H-pyrazol-3-yl)methanol], the half-maximal inhibitory concentration (IC50) on RON is greater than 1000 nM; with MKN45 cells it was 50 to 200 nM.
In the case of `COc1ccc(F)c(Cl)c1[C@@H](C)c1c[nH]c2ncc(-c3cnn(C)c3C(N)=O)cc12` [Example 43, 4-{3-[(1S)-1-(2-Chloro-3-fluoro-6-methoxyphenyl)ethyl]-1H-pyrrolo[2,3-b]pyridin-5-yl}-1-methyl-1H-pyrazole-5-carboxamide], the values for the IC50 at RON and in the assay on MKN45 cells were greater than 1000 nM and 200 to 1000 nM, respectively.
For `COc1ccc(F)c(Cl)c1[C@@H](C)c1c[nH]c2ncc(-c3cnn(C)c3CO)cc12` [Example 44, (4-{3-[(1S)-1-(2-Chloro-3-fluoro-6-methoxyphenyl)ethyl]-1H-pyrrolo[2,3-b]pyridin-5-yl}-1-methyl-1H-pyrazol-5-yl)methanol], in that order: greater than 1000 nM and 50 to 200 nM.
For `COc1ccc(F)c(Cl)c1[C@@H](C)c1c[nH]c2ncc(-c3c(C)nn(C)c3CO)cc12` [Example 45, (4-{3-[(1S)-1-(2-Chloro-3-fluoro-6-methoxyphenyl)ethyl]-1H-pyrrolo[2,3-b]pyridin-5-yl}-1,3-dimethyl-1H-pyrazol-5-yl)methanol], in that order: greater than 1000 nM and 200 to 1000 nM.
For `COc1ccc(F)c(Cl)c1[C@@H](C)c1c[nH]c2ncc(-c3cn(C)nc3C#N)cc12` [Example 46, 4-{3-[(1S)-1-(2-Chloro-3-fluoro-6-methoxyphenyl)ethyl]-1H-pyrrolo[2,3-b]pyridin-5-yl}-1-methyl-1H-pyrazole-3-carbonitrile], in that order: greater than 1000 nM and 50 to 200 nM.
For `CCc1nn([C@H]2CC[C@H](O)CC2)cc1-c1cnc2[nH]cc([C@H](C)c3c(OC)ccc(F)c3Cl)c2c1` [Example 47, trans-4-(4-{3-[(1S)-1-(2-Chloro-3-fluoro-6-methoxyphenyl)ethyl]-1H-pyrrolo[2,3-b]pyridin-5-yl}-3-ethyl-1H-pyrazol-1-yl)cyclohexanol], the results for the concentration for half-maximal inhibition (IC50) at RON and with MKN45 cells were 200 to 1000 nM and no more than 50 nM, respectively.
In the case of `CCc1c(-c2cnc3[nH]cc([C@H](C)c4c(OC)ccc(F)c4Cl)c3c2)cnn1[C@H]1CC[C@H](O)CC1` [Example 48, trans-4-(4-{3-[(1S)-1-(2-Chloro-3-fluoro-6-methoxyphenyl)ethyl]-1H-pyrrolo[2,3-b]pyridin-5-yl}-5-ethyl-1H-pyrazol-1-yl)cyclohexanol], the IC50 is greater than 1000 nM at RON and no more than 50 nM with MKN45 cells.
As for `COc1ccc(F)c(Cl)c1[C@@H](C)c1c[nH]c2ncc(-c3cnn([C@H]4CC[C@H](O)CC4)c3Cl)cc12` [Example 49, trans-4-(5-Chloro-4-{3-[(1S)-1-(2-chloro-3-fluoro-6-methoxyphenyl)ethyl]-1H-pyrrolo[2,3-b]pyridin-5-yl}-1H-pyrazol-1-yl)cyclohexanol], the results for the IC50 at RON and with MKN45 cells were greater than 1000 nM and no more than 50 nM, respectively.
Turning to `COc1ccc(F)c(Cl)c1[C@@H](C)c1c[nH]c2ncc(-c3cn(C)nc3CN)cc12` [Example 50, 1-(4-{3-[(1S)-1-(2-Chloro-3-fluoro-6-methoxyphenyl)ethyl]-1H-pyrrolo[2,3-b]pyridin-5-yl}-1-methyl-1H-pyrazol-3-yl)methanamine], the results for the IC50 at RON and with MKN45 cells were greater than 1000 nM and 50 to 200 nM, respectively.
On the same counts, the results for `COc1ccc(F)c(Cl)c1[C@@H](C)c1c[nH]c2ncc(-c3c(CO)nn(C)c3C)cc12` [Example 51, (4-{3-[(1S)-1-(2-Chloro-3-fluoro-6-methoxyphenyl)ethyl]-1H-pyrrolo[2,3-b]pyridin-5-yl}-1,5-dimethyl-1H-pyrazol-3-yl)methanol] are greater than 1000 nM and 50 to 200 nM.
Turning to `COc1ccc(F)c(Cl)c1[C@@H](C)c1c[nH]c2ncc(-c3cnn([C@H]4CC[C@@H](O)CC4)c3C)cc12` [Example 52, cis-4-(4-{3-[(1S)-1-(2-Chloro-3-fluoro-6-methoxyphenyl)ethyl]-1H-pyrrolo[2,3-b]pyridin-5-yl}-5-methyl-1H-pyrazol-1-yl)cyclohexanol], the IC50 was 200 to 1000 nM at RON and no more than 50 nM in the assay on MKN45 cells.
On the same counts, the results for `COc1ccc(F)c(Cl)c1[C@@H](C)c1c[nH]c2ncc(-c3cnn([C@H]4CC[C@H](N(C)C)CC4)c3C)cc12` [Example 53, trans-4-(4-{3-[(1S)-1-(2-Chloro-3-fluoro-6-methoxyphenyl)ethyl]-1H-pyrrolo[2,3-b]pyridin-5-yl}-5-methyl-1H-pyrazol-1-yl)-N,N-dimethylcyclohexanamine] are 200 to 1000 nM and no more than 50 nM.
On the same counts, the results for `COc1ccc(F)c(Cl)c1[C@@H](C)c1c[nH]c2ncc(-c3cnn([C@H]4CC[C@@H](N(C)C)CC4)c3C)cc12` [Example 54, cis-4-(4-{3-[(1S)-1-(2-Chloro-3-fluoro-6-methoxyphenyl)ethyl]-1H-pyrrolo[2,3-b]pyridin-5-yl}-5-methyl-1H-pyrazol-1-yl)-N,N-dimethylcyclohexanamine] are 200 to 1000 nM and no more than 50 nM.
On the same counts, the results for `COc1ccc(F)c(Cl)c1[C@@H](C)c1c[nH]c2ncc(-c3cn(C)nc3Cl)cc12` [Example 60, 3-[(1S)-1-(2-chloro-3-fluoro-6-methoxyphenyl)ethyl]-5-(3-chloro-1-methyl-1H-pyrazol-4-yl)-1H-pyrrolo[2,3-b]pyridine] are greater than 1000 nM and 50 to 200 nM.
For `COc1ccc(F)c(Cl)c1[C@@H](C)c1c[nH]c2ncc(-c3cn(C)nc3OC)cc12` [Example 61, 3-[(1S)-1-(2-Chloro-3-fluoro-6-methoxyphenyl)ethyl]-5-(3-methoxy-1-methyl-1H-pyrazol-4-yl)-1H-pyrrolo[2,3-b]pyridine], the IC50 on RON was 200 to 1000 nM; in the assay on MKN45 cells, no more than 50 nM.
For `COc1ccc(F)c(Cl)c1[C@@H](C)c1c[nH]c2ncc(-c3cnn(C)c3OC)cc12` [Example 62, 3-[(1S)-1-(2-chloro-3-fluoro-6-methoxyphenyl)ethyl]-5-(5-methoxy-1-methyl-1H-pyrazol-4-yl)-1H-pyrrolo[2,3-b]pyridine], in that order: greater than 1000 nM and 50 to 200 nM.
On the same counts, the results for `COc1ccc(F)c(Cl)c1[C@@H](C)c1c[nH]c2ncc(-c3c(C)nn(C)c3Cl)cc12` [Example 63, 5-(5-Chloro-1,3-dimethyl-1H-pyrazol-4-yl)-3-[(1S)-1-(2-chloro-3-fluoro-6-methoxyphenyl)ethyl]-1H-pyrrolo[2,3-b]pyridine] are greater than 1000 nM and 200 to 1000 nM.
On the same counts, the results for `COc1ccc(F)c(Cl)c1[C@@H](C)c1c[nH]c2ncc(-c3cncn3C)cc12` [Example 64, 3-[(1S)-1-(2-Chloro-3-fluoro-6-methoxyphenyl)ethyl]-5-(1-methyl-1H-imidazol-5-yl)-1H-pyrrolo[2,3-b]pyridine] are greater than 1000 nM and 50 to 200 nM.
Regarding `COc1ccc(F)c(Cl)c1[C@@H](C)c1c[nH]c2ncc(-c3cnc(C)n3C)cc12` [Example 65, 3-[(1S)-1-(2-chloro-3-fluoro-6-methoxyphenyl)ethyl]-5-(1,2-dimethyl-1H-imidazol-5-yl)-1H-pyrrolo[2,3-b]pyridine], the IC50 on RON is greater than 1000 nM; in the assay on MKN45 cells it was 50 to 200 nM.
For `Cc1nn(C[C@@H](O)CO)c(C)c1-c1cnc2[nH]cc([C@H](C)c3c(Cl)ccc(F)c3Cl)c2c1` [Example 66, (2R)-3-(4-{3-[(1S)-1-(2,6-Dichloro-3-fluorophenyl)ethyl]-1H-pyrrolo[2,3-b]pyridin-5-yl}-3,5-dimethyl-1H-pyrazol-1-yl)propane-1,2-diol], in that order: 200 to 1000 nM and no more than 50 nM.

The term IC50 denotes the concentration needed to halve the response being measured.
